Data published in patent publication US12264175B2, “Compositions and methods for capping RNAS” (Verve Therapeutics, Inc., priority 2020, dated 2025).

Key:
T7 RNA polymerase = T7 RNA polymerase (Escherichia phage T7, UniProt P00573); test: mRNA capping efficiency at adjusted 5′ end initiator-to-NTP molar ratio; type: biochemical; conditions: FIG. 4
Source text: The amount of capped mRNA produced in an IVT reaction is directly proportional to the ratio of cap to NTPs in the reaction mixture (Stepinski, J. et al., RNA. 2006, 7, 1486-1495). The 5′ end initiator-to-NTP ratio in an IVT reaction impacts the amount of mRNA that becomes capped primarily because cap can compete with NTPs for insertion at the 5′ end of mRNA. A typical initiator-to-NTP ratio for a dinucleotide cap structure is 4:1 and a typical molar initiator-to-NTP ratio for a trinucleotide cap structure is 1:1; where NTP represents either GTP, ATP, CTP, UTP, or modified NTPs such as N1-methyl pseudouridine. At both a 4:1 ratio for a dinucleotide cap and 1:1 ratio for a trinucleotide cap, the resultant mRNA will have a mixture of transcripts of which at least 80% are capped at the 5′ end and up to 20% are uncapped, this is also described as a capping efficiency of 80%. Capping efficiency is the measured amount of capped mRNA divided by the total amount of capped mRNA plus uncapped mRNA. Therefore, trinucleotide caps can be considered more efficient capping compounds than dinucleotide caps since less input cap is required to produce a final mRNA product that contains a similar amount of capped 5′ ends. The ability of trinucleotide caps to produce a high (>90%) capping efficiency at a lower initiator-to-NTP ratio than dinucleotide caps, in some instances, can be attributed to the increased affinity of a trinucleotide cap for the DNA template. In some cases, the optimal cap-to-NTP ratio may vary with the composition of the cap structure, wherein modification of cap structures may affect capping efficiency. […]
The amount of capped mRNA relative to the total amount of mRNA that is present, i.e. capping efficiency, can be measured by numerous methods well known in the art. […]

[1] = test system: primary human liver hepatocytes (hPH); test: ABE protein levels by ELISA after mRNA transfection of primary human hepatocytes; type: cell-based; conditions: ABE mRNA transfected to hPH cells, FIG. 6
Procedure: Primary human liver hepatocytes (hPH), primary cynomolgus liver hepatocytes (cPH), or primary mouse liver hepatocytes (mPH) are cultured per the manufacturer's protocol. In brief, the cells are thawed and resuspended in hepatocyte thawing medium followed by centrifugation at 100 g for 10 min at 4° C. The supernatant is discarded, and the pelleted cells resuspended in hepatocyte plating medium. Each vial contains ˜5 million cells that are used for plating one 24-well plate. Plated cells are allowed to settle and adhere for 4-6 h in a tissue culture incubator at 37° C. under 5% CO2 atmosphere. After incubation, cells are checked for monolayer formation. The incubating media is then replaced with fresh hepatocyte maintenance media The cells thus are ready for transfection using a transfection agent such as MessengerMAX. Solution A: desired amount of single guide RNA (sgRNA) is mixed with 1:1 wt ratio of mRNA in OptiMEM. Solution B: MessengerMAX in OptiMEM. After mixing solutions A and B, the mixture is incubated at room temperature for 20 minutes, and then the incubated solution is added dropwise to each well of cells. The cells are then allowed to remain at 37° C. for 3 days. […] For example, mRNA with 5′ end region motifs, 1007a and 1107a, were transfected to hPH cells as described above, the cells were lysed, and ABE protein levels were measured by ELISA. […]

RIG-I = test: Immune stimulation of capped mRNA in HEK-Lucia RIG-I cell reporter model; type: cell-based
Procedure: LNPs are prepared and administered in vivo to mice as in Example 11(A,B). Blood is collected at appropriate time points, typically at intervals between 1-48 hours post-dose and terminal end point, and processed to serum or plasma per techniques well known in the art. Serum or plasma cytokine and chemokine levels are measured using V-PLEX cytokine and chemokine detection kits. Cytokine and chemokine levels are compared to animals treated with buffer alone as well as pre-dose sampling of the treatment animals. In some instances, the immune stimulation of capped mRNA is assessed after in vitro transfection to reporter cell lines such as HEK-Lucia RIG-I cell reporter model, which produces luciferase signal in the presence of IFN-stimulated response elements such as uncapped mRNA. This cell model is cultured and transfected as described in Example 7, and luciferase activity is measured using a luciferase activity kit and plate reader. It is known in the art that uncapped mRNA produces a RIG-I-dependent IFN immune response, and capped mRNA lessens this immune stimulation. […] The results of this example were compared using mRNA made with a commercially available 5′ end initiator, 1002a, as a reference.

T7 RNA polymerase, sequence (P00573 whole entry): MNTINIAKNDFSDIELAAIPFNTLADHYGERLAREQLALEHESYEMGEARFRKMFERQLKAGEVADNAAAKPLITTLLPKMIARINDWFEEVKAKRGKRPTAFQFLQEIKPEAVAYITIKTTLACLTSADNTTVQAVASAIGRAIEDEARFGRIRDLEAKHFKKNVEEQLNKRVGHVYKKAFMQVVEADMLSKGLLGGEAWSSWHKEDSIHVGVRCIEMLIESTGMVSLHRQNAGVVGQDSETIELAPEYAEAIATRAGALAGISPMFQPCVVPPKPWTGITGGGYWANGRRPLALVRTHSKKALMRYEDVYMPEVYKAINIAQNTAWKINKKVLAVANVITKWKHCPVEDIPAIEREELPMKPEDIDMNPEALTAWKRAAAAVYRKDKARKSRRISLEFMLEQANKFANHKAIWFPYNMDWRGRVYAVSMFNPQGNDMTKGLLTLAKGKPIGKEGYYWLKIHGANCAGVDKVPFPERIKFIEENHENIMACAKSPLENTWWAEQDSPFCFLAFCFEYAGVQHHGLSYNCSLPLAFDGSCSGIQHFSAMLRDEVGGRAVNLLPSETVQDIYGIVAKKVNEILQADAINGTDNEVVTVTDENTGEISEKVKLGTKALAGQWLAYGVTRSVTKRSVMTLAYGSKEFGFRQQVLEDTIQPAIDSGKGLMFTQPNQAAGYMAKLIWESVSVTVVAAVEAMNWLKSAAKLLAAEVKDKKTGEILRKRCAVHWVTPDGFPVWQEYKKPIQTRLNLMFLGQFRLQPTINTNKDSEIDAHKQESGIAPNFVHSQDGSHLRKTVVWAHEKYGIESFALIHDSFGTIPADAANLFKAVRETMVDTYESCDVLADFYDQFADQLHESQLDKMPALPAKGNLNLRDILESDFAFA

SMILES: COC1C(OP([O-])(=S)OCC2OC(n3cnc4c(=O)[nH]c(N)nc43)C(O)C2O)C(COP(=O)(O)OP(=O)(O)OP(=O)(O)OCC2OC(n3c[n+](C)c4c(=O)[nH]c(N)nc43)C(O)C2O)OC1n1cnc2c(N)ncnc21 (centres unmarked) [1007a, m^7G(ppp)Am(ps)G]
- capping efficiency (T7 RNA polymerase; initiator-to-NTP ratio ranging from 1:1 down to 1:2.5): > 90%
- capping efficiency compared to mRNA capped with 1002a (T7 RNA polymerase; similar production conditions): similar
- ABE protein levels as compared to mRNA with 5′ end region motif 1002a [1]: similar
- RIG-I activity as compared to uncapped mRNA (RIG-I; mRNA with the 5′ end motif, FIG. 8): reduced
- RIG-I activation as a result of the chemical modifications to the cap structure (RIG-I; reference mRNA made with 1002a): did not appear to increase
